Source: patent publication US20050165028A1, “Vanilloid receptor ligands and their use in treatments” (priority 2004, published 2005)

## O=C(Nc1ccc2c(c1)OCCO2)c1ccc(-c2cccs2)cc1 [Example 15, N-(2,3-Dihydro-benzo[1,4]dioxin-6-yl)-4-thiophen-2-yl-benzamide]
  melting point: 192 to 195 °C
